Experimental findings from patent publication US20250026724A1, “(1,4,5-TRISUBSTITUTED 1H-PYRAZOL-3-YL)OXY-2-ALKYLTHIOALKYL ACIDS AND -ALKYL ACID DERIVATIVES, SALTS THEREOF AND USE THEREOF AS ACTIVE HERBICIDAL INGREDIENTS” (BAYER AKTIENGESELLSCHAFT, priority 2021, published 2025) are described below.

Molecules are shown by their SMILES. Like-named read-outs stand apart in the source and are kept apart here.

Common to all, as to type: in vivo
Series [1] has as its system Amaranthus retroflexus (AMARE). As to the kind of experiment: Pre-emergence herbicidal effect, greenhouse pot trial. As to conditions: visual rating after about 3 weeks vs untreated controls. From the text:
(§1) Seeds of monocotyledonous and dicotyledonous weed plants and crop plants are placed in plastic or organic planting pots and covered with soil. The compounds of the invention, formulated in the form of wettable powders (WP) or as emulsion concentrates (EC), are then applied to the surface of the covering soil as aqueous suspension or emulsion with addition of 0.5% additive at a water application rate equivalent to 600 1/ha. After the treatment, the pots are placed in a greenhouse and kept under good growth conditions for the trial plants. After about 3 weeks, the effect of the preparations is rated visually in comparison with untreated controls as percentages. For example, 100% activity=the plants have died, 0% activity=like control plants.
(§2) Tables A1 and A2 below show the effects of selected compounds of the general formula (I) according to Table 1 on various harmful plants and at an application rate corresponding to 320 g/ha or lower, which were obtained by the trial procedure specified above. The appendices “a” and “b” give differentiation by dosage used with otherwise the same harmful plants tested.
(§3) As shown by the results from Tables A1 and A2, compounds of the invention have good pre-emergence herbicidal efficacy against harmful plants, for example against harmful plants such as Amaranthus retroflexus (AMARE) and Polygonum convolvulus (POLCO).

Series [2] deals with Polygonum convolvulus (POLCO). Described as above. As to conditions: visual rating after about 3 weeks vs untreated controls.
Source text: as §1, §2, §3

For a further series, the system named is Lolium rigidum (LOLRI). As to the kind of experiment: Post-emergence herbicidal action, greenhouse pot trial. As to conditions: Lolium rigidum, 504 h, 320 g/ha, visual rating after about 3 weeks, read-out: Post-emergence effect at 320 g/ha against LOLRI in %. In short, it runs like this:
(§4)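 Sandy loam pots, greenhouse; one-leaf stage (2–3 wk after sowing); WP/EC in water, 0.5% additive, 600 l/ha spray volume; ≤320 g/ha; visual score vs untreated at ~3 wk, 0–100%.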

In a further series the test system is Viola tricolor (VIOTR). Described as above. In short, it runs like this: as §4
A further series has as its system Setaria viridis (SETVI). The series is described as above. The conditions noted are these: for pest or weed control at 320 g/ha: Setaria viridis, 504 h, read-out: Post-emergence effect at 320 g/ha against SETVI in %. In short, it runs like this:
as §4

Series [3] deals with Echinochloa crus-galli (ECHCG). The description is as above. The conditions noted are these: for pest or weed control at 320 g/ha: read-out: Post-emergence effect at 320 g/ha against ECHCG in %. In short, it runs like this:
as §4

Series [4] concerns Matricaria inodora (MATIN). The description is as above. As to conditions: visual rating after about 3 weeks. The essentials: as §4
Series [5] deals with Pharbitis purpurea (PHBPU). Described as above. The conditions noted are these: Ipomoea purpurea, 504 h, 320 g/ha, visual rating after about 3 weeks, read-out: Post-emergence effect at 320 g/ha against PHBPU in %. The essentials: as §4
Series [6] concerns Abutilon theophrasti (ABUTH). The description is as above. The conditions noted are these: 320 g/ha, visual rating after about 3 weeks. The essentials:
as §4

Series [7] deals with Alopecurus myosuroides (ALOMY). The series is described as above. The conditions noted are these: 320 g/ha, visual rating after about 3 weeks. In short, it runs like this:
as §4

Series [8] has as its system Polygonum convolvulus (POLCO). The series is described as above. The conditions noted are these: visual rating after about 3 weeks. The essentials:
as §4

The subject of series [9] is Triticum aestivum (TRZAS). As to the kind of experiment: Post-emergence crop plant compatibility, greenhouse pot trial. The conditions noted are these: post-emergence; for Post-emergence effect against TRZAS (crop plant compatibility): in comparison to untreated controls; for Post-emergence effect at 320 g/ha against TRZAS in %: crop plant compatibility (effect on crop vs untreated controls). The essentials:
(§5)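 Visual % damage versus untreated plants (0% = like control, 100% = died), scored about 3 weeks after post-emergence spraying at the one-leaf stage. Compounds applied as WP or EC with 0.5% additive, 600 l/ha; letters a, b, c mark different doses.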

The test system of the next series is Zea mays (ZEAMX). The series is described as above. The conditions noted are these: in comparison to untreated controls. The essentials:
as §5

A further series relates to Oryza sativa (ORYSA). The description is as above. The conditions noted are these: in comparison to untreated controls. In short, it runs like this:
as §5

Another series concerns Glycine max (GLXMA). The description is as above. As to conditions: in comparison to untreated controls. In short, it runs like this:
as §5

For the next series, the system named is Brassica napus (BRSNW). The series is described as above. The conditions noted are these: 20 g/ha, in comparison to untreated controls. The essentials:
as §5

The subject of series [10] is Amaranthus retroflexus (AMARE). As to the kind of experiment: Post-emergence herbicidal action, greenhouse pot trial. As to conditions: visual rating after about 3 weeks. The essentials:
as §4

The subject of series [11] is Digitaria sanguinalis (DIGSA). Described as above. As to conditions: 320 g/ha, visual rating after about 3 weeks. In short, it runs like this:
as §4

The mark [12] stands for this setting: 320 g/ha, visual rating after about 3 weeks.

With `CCOC(=O)C(Oc1nn(-c2ccccc2F)c(-c2ccc(F)nc2)c1Br)SC` (stereo not drawn) [Example I-01], the “Pre-emergence effect at 80 g/ha against AMARE in %” value in series [1] (80 g/ha) was determined as 90%. Further, the “Pre-emergence effect at 320 g/ha against AMARE in %” value in series [1] (320 g/ha) is 100%. Further, in series [2] (80 g/ha), the “Pre-emergence effect at 80 g/ha against POLCO in %” value is reported as 80%. In series [2] (320 g/ha), the “Pre-emergence effect at 320 g/ha against POLCO in %” value stood at 80%. The pest or weed control at 320 g/ha worked out at 80% in the series with Lolium rigidum (LOLRI); 80% with Viola tricolor (VIOTR) (Viola tricolor, 504 h, 320 g/ha, read-out: Post-emergence effect against VIOTR); 80% with Setaria viridis (SETVI) (setting [12]); 80% in series [3] (Echinochloa crus-galli, 504 h, 320 g/ha, visual rating after about 3 weeks); 80% in series [4] (Tripleurospermum inodorum, 504 h, 320 g/ha, read-out: Post-emergence effect at 320 g/ha against MATIN in %); 90% in [5]. The pest or weed control at 320 g/ha in series [6] (Abutilon theophrasti, 504 h, read-out: Post-emergence effect at 320 g/ha against ABUTH in %) came out at 80%; in series [7] (Alopecurus myosuroides, 504 h, read-out: Post-emergence effect at 320 g/ha against ALOMY in %), 80%; in series [8] (Fallopia convolvulus, 504 h, 320 g/ha, read-out: Post-emergence effect at 320 g/ha against POLCO in %) it was 80%. For the same compound, the pest or weed control at 80 g/ha turned out to be 80% in [3] (Echinochloa crus-galli, 504 h, 80 g/ha, visual rating after about 3 weeks, read-out: Post-emergence effect at 80 g/ha against ECHCG in %); 80% in series [4] (Tripleurospermum inodorum, 504 h, 80 g/ha, read-out: Post-emergence effect at 80 g/ha against MATIN in %); 80% in series [8] (Fallopia convolvulus, 504 h, 80 g/ha, read-out: Post-emergence effect at 80 g/ha against POLCO in %).

For `CCOC(=O)C(Oc1nn(-c2cc(F)ccc2F)c(-c2cncc(F)c2)c1C1CC1)SC` (stereo not drawn) [Example I-05], the “Post-emergence effect against TRZAS (crop plant compatibility)” value (“Post-emergence effect against TRZAS” for short) in [9] (20 g/ha) was 0%; in [9] (80 g/ha), 10%. For the same compound, in the series with Zea mays (ZEAMX) (20 g/ha), the “Post-emergence effect against ZEAMX (crop plant compatibility)” value (from here on “Post-emergence effect against ZEAMX”) was found to be 20%. Besides, the “Post-emergence effect against ORYSA (crop plant compatibility)” value (from here on “Post-emergence effect against ORYSA”) turned out to be 0% in the series on Oryza sativa (ORYSA) (20 g/ha), 0% in the series on Oryza sativa (ORYSA) (80 g/ha) and 10% in the series with Oryza sativa (ORYSA) (320 g/ha). Moreover, the “Post-emergence effect against GLXMA (crop plant compatibility)” value (from here on “Post-emergence effect against GLXMA”) amounted to 0% in the series on Glycine max (GLXMA) (20 g/ha) and 10% with Glycine max (GLXMA) (80 g/ha). Besides, the pest or weed control at 320 g/ha in the series on Setaria viridis (SETVI) turned out to be 90%; in series [3] (Echinochloa crus-galli, 504 h), 80%.

For the compound `CCOC(=O)C(Oc1nn(-c2ccc(Cl)cc2F)c(-c2ccc(F)cc2F)c1Br)SC` (stereo not drawn) [Example I-12], the “Post-emergence effect against TRZAS” value in series [9] (20 g/ha) and in series [9] (80 g/ha) was 0% each time. The “Post-emergence effect at 320 g/ha against TRZAS in %” value in series [9] was determined as 0%. For the same compound, the “Post-emergence effect against ZEAMX” value with Zea mays (ZEAMX) (20 g/ha), with Zea mays (ZEAMX) (80 g/ha) and in the series on Zea mays (ZEAMX) (320 g/ha) was 0% throughout. Also, the “Post-emergence effect against ORYSA” value in the series with Oryza sativa (ORYSA) (20 g/ha), with Oryza sativa (ORYSA) (80 g/ha) and in the series with Oryza sativa (ORYSA) (320 g/ha) was 0% each time. Also, the “Post-emergence effect against GLXMA” value in the series on Glycine max (GLXMA) (20 g/ha), in the series on Glycine max (GLXMA) (80 g/ha) and in the series on Glycine max (GLXMA) (320 g/ha) was 0% each time. Besides, in the series with Brassica napus (BRSNW), the “Post-emergence effect against BRSNW (crop plant compatibility)” value is recorded as 0%.

Consider `CCOC(=O)C(Oc1nn(-c2ncccc2F)c(-c2ccc(Cl)cc2)c1Br)SC` (stereo not drawn) [Example I-15], for which the “Post-emergence effect against TRZAS” value in [9] (20 g/ha) and in series [9] (80 g/ha) was 0% in each case. Moreover, the “Post-emergence effect at 320 g/ha against TRZAS in %” value in series [9] turned out to be 10%. For the same compound, the “Post-emergence effect against ZEAMX” value in the series with Zea mays (ZEAMX) (20 g/ha) was determined as 0%; in the series on Zea mays (ZEAMX) (80 g/ha) it was 0%; in the series on Zea mays (ZEAMX) (320 g/ha) it was 10%. Further, the “Post-emergence effect against ORYSA” value in the series on Oryza sativa (ORYSA) (20 g/ha), in the series with Oryza sativa (ORYSA) (80 g/ha) and in the series on Oryza sativa (ORYSA) (320 g/ha) was 0% in each case. Moreover, the “Post-emergence effect against GLXMA” value is listed as 0% in the series on Glycine max (GLXMA) (20 g/ha) and 10% in the series on Glycine max (GLXMA) (80 g/ha). In addition, the “Post-emergence effect against BRSNW (crop plant compatibility)” value in the series with Brassica napus (BRSNW) came out at 0%.

On to `COC(=O)CCOC(=O)C(Oc1nn(-c2ccccc2F)c(-c2ccc(F)nc2)c1I)SC` (stereo not drawn) [Example I-54], for which the “Post-emergence effect against TRZAS” value in [9] (20 g/ha) is 0%. The “Post-emergence effect against ZEAMX” value in the series on Zea mays (ZEAMX) (20 g/ha) came to 0%. Moreover, the “Post-emergence effect against GLXMA” value in the series with Glycine max (GLXMA) (20 g/ha) and with Glycine max (GLXMA) (80 g/ha) was 0% each time. Further, the “Post-emergence effect at 80 g/ha against AMARE in %” value in series [10] (80 g/ha) was 90%. Besides, the “Post-emergence effect at 320 g/ha against AMARE in %” value in series [10] (320 g/ha) came out at 90%. Besides, the “Post-emergence effect against VIOTR” value with Viola tricolor (VIOTR) (80 g/ha) was 80%; with Viola tricolor (VIOTR) (320 g/ha) it was 90%. Further, the “Post-emergence effect at 320 g/ha against SETVI in %” value with Setaria viridis (SETVI) (setting [12]) is listed as 90%. For the same compound, the “Post-emergence effect at 320 g/ha against ECHCG in %” value in [3] (setting [12]) is reported as 90%. In addition, the “Post-emergence effect at 320 g/ha against MATIN in %” value in [4] (320 g/ha) was 80%. In series [6], the “Post-emergence effect at 320 g/ha against ABUTH in %” value is recorded as 80%. The “Post-emergence effect at 320 g/ha against ALOMY in %” value in [7] was 80%. Further, in [8] (320 g/ha), the “Post-emergence effect at 320 g/ha against POLCO in %” value is 80%. Further, the “Post-emergence effect at 320 g/ha against DIGSA in %” value in [11] is listed as 80%.
